Reference: ChEMBL document CHEMBL3585283, “Synthesis and evaluation of a series of quinolinyl trans-cyanostilbene analogs as anticancer agents” (2014)
Active and inactive are the calls of the source. No cut-off for these calls is given here.

Key:
[1] = Antitumor activity against human COLO205 cells after 48 hrs; format: functional; conditions: COLO 205, 48 h
HT-29 = test: Antitumor activity against human HT-29 cells after 48 hrs; format: functional; conditions: HT-29, 48 h
EKVX = test: Antitumor activity against human EKVX cells after 48 hrs; format: functional, cell-based
[2] = Antitumor activity against human Hs578T cells after 48 hrs; format: functional; conditions: Hs-578T
SW-620 = test: Antitumor activity against human SW620 cells after 48 hrs; format: functional; conditions: SW-620, 48 h
IGROV-1 = test: Antitumor activity against human IGROV1 cells after 48 hrs; format: functional; conditions: IGROV-1, 48 h
SK-OV-3 = test: Antitumor activity against human SKOV3 cells after 48 hrs; format: functional; conditions: SK-OV-3, 48 h
M14 = test: Antitumor activity against human M14 cells after 48 hrs; format: functional; conditions: M14, 48 h
HL-60(TB) = test: Antitumor activity against human HL-60(TB) cells after 48 hrs; format: functional; conditions: HL-60, 48 h
NCI-H322M = test: Antitumor activity against human NCI-H322M cells after 48 hrs; format: functional
HCT-15 = test: Antitumor activity against human HCT15 cells after 48 hrs; format: functional; conditions: HCT-15, 48 h
KM12 = test: Antitumor activity against human KM12 cells after 48 hrs; format: functional; conditions: KM12, 48 h
OVCAR-3 = test: Antitumor activity against human OVCAR3 cells after 48 hrs; format: functional; conditions: OVCAR-3, 48 h
SK-MEL-2 = test: Antitumor activity against human SK-MEL-2 cells after 48 hrs; format: functional; conditions: SK-MEL-2, 48 h
OVCAR-4 = test: Antitumor activity against human OVCAR4 cells after 48 hrs; format: functional; conditions: OVCAR-4, 48 h
[3] = Antitumor activity against human BT549 cells after 48 hrs; format: functional; conditions: BT-549, 48 h
HCT-116 = test: Antitumor activity against human HCT116 cells after 48 hrs; format: functional; conditions: HCT-116, 48 h
CCRF-CEM = test: Antitumor activity against human CCRF-CEM cells after 48 hrs; format: functional
NCI-H460 = test: Antitumor activity against human NCI-H460 cells after 48 hrs; format: functional; conditions: NCI-H460, 48 h
[4] = Antitumor activity against human HOP92 cells after 48 hrs; format: functional; conditions: HOP-92, 48 h
SF-268 = test: Antitumor activity against human SF268 cells after 48 hrs; format: functional; conditions: SF-268, 48 h
[5] = Antitumor activity against human LOXIMVI cells after 48 hrs; format: functional; conditions: LOX IMVI
SNB-19 = test: Antitumor activity against human SNB19 cells after 48 hrs; format: functional; conditions: SNB-19, 48 h
[6] = Antitumor activity against human MOLT4 cells after 48 hrs; format: functional; conditions: MOLT-4, 48 h
MDA-MB-435 = test: Antitumor activity against human MDA-MB-435 cells after 48 hrs; format: functional; conditions: MDA-MB-435, 48 h
[7] = Antitumor activity against human NCI-ADR-RES cells after 48 hrs; format: functional
UACC-257 = test: Antitumor activity against human UACC257 cells after 48 hrs; format: functional; conditions: UACC-257, 48 h
A549 = test: Antitumor activity against human A549 cells after 48 hrs; format: functional; conditions: A549, 48 h
K562 = test: Antitumor activity against human K562 cells after 48 hrs; format: functional; conditions: K562, 48 h
[8] = Antitumor activity against human SF295 cells after 48 hrs; format: functional; conditions: SF-295, 48 h
[9] = Antitumor activity against human SF539 cells after 48 hrs; format: functional; conditions: SF-539, 48 h
T47D = test: Antitumor activity against human T47D cells after 48 hrs; format: functional
Malme-3M = test: Antitumor activity against human MALME-3M cells after 48 hrs; format: functional
[10] = Antitumor activity against human RPMI8226 cells after 48 hrs; format: functional; conditions: RPMI-8226, 48 h
DU-145 = test: Antitumor activity against human DU145 cells after 48 hrs; format: functional; conditions: DU-145, 48 h
A498 = test: Antitumor activity against human A498 cells after 48 hrs; format: functional; conditions: A498, 48 h
ACHN = test: Antitumor activity against human ACHN cells after 48 hrs; format: functional
UACC-62 = test: Antitumor activity against human UACC62 cells after 48 hrs; format: functional; conditions: UACC-62, 48 h
SN12C = test: Antitumor activity against human SN12C cells after 48 hrs; format: functional
OVCAR-8 = test: Antitumor activity against human OVCAR8 cells after 48 hrs; format: functional; conditions: OVCAR-8, 48 h
SK-MEL-5 = test: Antitumor activity against human SK-MEL-5 cells after 48 hrs; format: functional; conditions: SK-MEL-5, 48 h
786-0 = test: Antitumor activity against human 786-0 cells after 48 hrs; format: functional; conditions: 786-0, 48 h
NCI-H522 = test: Antitumor activity against human NCI-H522 cells after 48 hrs; format: functional; conditions: NCI-H522, 48 h
[11] = Antitumor activity against human HCC2998 cells after 48 hrs; format: functional; conditions: HCC 2998, 48 h
NCI-H226 = test: Antitumor activity against human NCI-H226 cells after 48 hrs; format: functional; conditions: NCI-H226, 48 h
PC-3 = test: Antitumor activity against human PC3 cells after 48 hrs; format: functional; conditions: PC-3, 48 h
OVCAR-5 = test: Antitumor activity against human OVCAR5 cells after 48 hrs; format: functional; conditions: OVCAR-5, 48 h
CAKI-1 = test: Antitumor activity against human Caki1 cells after 48 hrs; format: functional; conditions: CAKI-1, 48 h
MCF7 = test: Antitumor activity against human MCF7 cells after 48 hrs; format: functional; conditions: MCF7, 48 h
SR = test: Antitumor activity against human SR cells after 48 hrs; format: functional
SNB-75 = test: Antitumor activity against human SNB75 cells after 48 hrs; format: functional; conditions: SNB-75, 48 h
MDA-MB-231 = test: Antitumor activity against human MDA-MB-231 cells after 48 hrs; format: functional; conditions: MDA-MB-231, 48 h
MDA-MB-468 = test: Antitumor activity against human MDA-MB-468 cells after 48 hrs; format: functional; conditions: MDA-MB-468, 48 h
NCI-H23 = test: Antitumor activity against human NCI-H23 cells after 48 hrs; format: functional; conditions: NCI-H23, 48 h
UO-31 = test: Antitumor activity against human UO31 cells after 48 hrs; format: functional; conditions: UO-31, 48 h
HOP-62 = test: Antitumor activity against human HOP62 cells after 48 hrs; format: functional; conditions: HOP-62, 48 h
TK-10 = test: Antitumor activity against human TK10 cells after 48 hrs; format: functional; conditions: TK-10, 48 h
SK-MEL-28 = test: Antitumor activity against human SK-MEL-28 cells after 48 hrs; format: functional; conditions: SK-MEL-28, 48 h
U-251 = test: Antitumor activity against human U251 cells after 48 hrs; format: functional; conditions: U-251, 48 h
[12] = Antitumor activity against human RXF393 cells after 48 hrs; format: functional; conditions: RXF 393, 48 h

For `COc1cc(/C(C#N)=C/c2ccc3ccccc3n2)cc(OC)c1OC`, the GI50 [1] was 198 nM, the GI50 (HT-29) was 240 nM and the GI50 (EKVX) was “inactive”. It also gave a GI50 [2] of 689 nM, a GI50 (SW-620) of 164 nM and a GI50 (IGROV-1) of 846 nM. The GI50 (SK-OV-3) was 524 nM, the GI50 (M14) was 173 nM and the GI50 (HL-60(TB)) was 223 nM. It also gave a GI50 (NCI-H322M) of 718 nM, a GI50 (HCT-15) of 319 nM and a GI50 (KM12) of 350 nM. It also gave a GI50 (OVCAR-3) of 163 nM, a GI50 (SK-MEL-2) of 483 nM and a GI50 (OVCAR-4) of 1430 nM. It also gave a GI50 [3] of 315 nM, a GI50 (HCT-116) of 234 nM and a GI50 (CCRF-CEM) of 248 nM. It also gave a GI50 (NCI-H460) of 361 nM, a GI50 [4] of 736 nM and a GI50 (SF-268) of 835 nM. For the same compound, the GI50 [5] was 766 nM, the GI50 (SNB-19) was 578 nM and the GI50 [6] was 488 nM. For the same compound, the GI50 (MDA-MB-435) was 33 nM, the GI50 [7] was 112 nM and the GI50 (UACC-257) was 761 nM. For the same compound, the GI50 (A549) was 375 nM, the GI50 (K562) was 80 nM and the GI50 [8] was 277 nM. The GI50 [9] was 197 nM, the GI50 (T47D) was 4760 nM and the GI50 (Malme-3M) was “inactive”. For the same compound, the GI50 [10] was 297 nM, the GI50 (DU-145) was 446 nM and the GI50 (A498) was 295 nM. It also gave a GI50 (ACHN) of 1040 nM, a GI50 (UACC-62) of 92 nM and a GI50 (SN12C) of 627 nM. The GI50 (OVCAR-8) was 446 nM, the GI50 (SK-MEL-5) was 243 nM and the GI50 (786-0) was 445 nM. The GI50 (NCI-H522) was 37.2 nM, the GI50 [11] was 610 nM and the GI50 (NCI-H226) was 4780 nM. It also gave a GI50 (PC-3) of 348 nM, a GI50 (OVCAR-5) of 580 nM and a GI50 (CAKI-1) of 68 nM. For the same compound, the GI50 (MCF7) was 275 nM, the GI50 (SR) was “inactive” and the GI50 (SNB-75) was 182 nM. It also gave a GI50 (MDA-MB-231) of 943 nM, a GI50 (MDA-MB-468) of 243 nM and a GI50 (NCI-H23) of 751 nM. For the same compound, the GI50 (UO-31) was 762 nM, the GI50 (HOP-62) was 567 nM and the GI50 (TK-10) was 4690 nM. It also gave a GI50 (SK-MEL-28) of 518 nM, a GI50 (U-251) of 355 nM and a GI50 [12] of 271 nM.
